Data taken from US20240382521A1, “METHODS OF ENGINEERING IMMUNE CELLS HAVING REDUCED FRATRICIDAL ACTIVITY” (Baylor College of Medicine, priority 2021, published 2024).

Assays:
CD5 CAR T-cells = experiment: Expansion of CD5 CAR T-cells in the presence of kinase inhibitors; assay type: cell-based, human; settings: for frequencies of minimally differentiated, naïve-like T-cells (differentiation of CD5 CAR T-cells): inhibitor added on day of viral transduction, replenished every 2-3 days, vs control CD5 CAR T-cells expanded in the absence of inhibitors, FIG. 1A
Description: Pazopanib and gefitinib had less impact on the differentiation of CD5 CAR T-cells. […] No such effect was observed upon expansion of control non-transduced T-cells in the presence of the same inhibitors, indicating the effect is CAR-specific.

CYP3A = settings: cited from earlier work

| Structure (SMILES) | frequencies of minimally differentiated, naïve-like T-cells (differentiation of CD5 CAR T-cells) (CD5 CAR T-cells) | CD5 CAR T-cell expansion (CD5 CAR T-cells; in presence of inhibitor, compared with non-transduced control T-cells, FIG. 1B) | metabolism in the liver by the CYP3A (CYP3A) |
| --- | --- | --- | --- |
| COc1cc2ncnc(Nc3ccc(F)c(Cl)c3)c2cc1OCCCN1CCOCC1 [gefitinib] | less impact |  |  |
| CC(C)(C)n1nc(-c2ccc(Cl)cc2)c2c(N)ncnc21 [pp2] | higher frequencies | promoted robust CD5 CAR T-cell expansion |  |
| Cc1nc(Nc2ncc(C(=O)Nc3c(C)cccc3Cl)s2)cc(N2CCN(CCO)CC2)n1 [dasatinib] |  |  | extensive metabolism |
